Assay results: ChEMBL document CHEMBL1156238, “Allosteric inhibitors of hepatitis C virus NS5B polymerase thumb domain site II: structure-based design and synthesis of new templates” (Bioorg Med Chem, 2010)
Calls of active or inactive are those of the source. The rule behind the calls is not given here.

Experiments:
Hepatitis C virus [1] = assay: Inhibition of HCV genotype 1b NS5B polymerase deltaC21 mutant; assay type: functional, Hepatitis C virus subtype 1b
[2] = Inhibition of HCV genotype 2b NS5B polymerase deltaC21 mutant; design: species or system Hepatitis C virus subtype 2b
Hepatitis C virus [3] = assay: Antiviral activity against HCV infected in human HBI10A cells; assay type: functional, organism-based, Hepacivirus hominis
[4] = Cytotoxicity against human HBI10A cells; assay type: cell-based
Hepatitis C virus [5] = assay: Antiviral activity against Hepatitis C virus H2B2; assay type: functional, organism-based, Hepacivirus hominis
[6] = Selectivity index, ratio of CC50 for human HBI10A cells to EC50 for Hepatitis C virus; assay type: toxicity, cell-based; details: read-out: Ratio CC50/EC50
[7] = Cytotoxicity against human HBI10A cells at 20 uM; assay type: cell-based
Hepatitis C virus [8] = assay: Inhibition of HCV genotype 1b NS5B polymerase deltaC21 M423K mutant; assay type: functional, Hepatitis C virus subtype 1b
Hepatitis C virus [9] = assay: Inhibition of HCV genotype 1b NS5B polymerase deltaC21 mutant at 50 uM; assay type: functional; details: Hepatitis C virus subtype 1b
Hepatitis C virus [10] = assay: Inhibition of HCV genotype 1b NS5B polymerase deltaC21 M423K mutant at 50 uM; assay type: functional; details: Hepatitis C virus subtype 1b
Hepatitis C virus [11] = assay: Antiviral activity against Hepatitis C virus at 20 uM; details: Hepacivirus hominis
Hepatitis C virus [12] = assay: Inhibition of HCV genotype 1b NS5B polymerase deltaC21 M423K mutant at 2 uM; assay type: functional; details: Hepatitis C virus subtype 1b
[13] = Hepatitis C virus, H2B2, read-out: EC50

Row | SMILES | IC50 (Hepatitis C virus [1]; read-out: IC50) [nM] | IC50 [2] [nM] | EC50 (Hepatitis C virus [3]) [µM] | CC50 ([4]; HBI10A cells, read-out: CC50) [µM] | EC50 (Hepatitis C virus [5]; [13]) [µM] | selectivity ratio [6] | other results
1 | O=C(O)c1cccc(CN2CCn3c(=O)n(-c4cccc(Cl)c4)c(=O)c4cccc2c43)c1 | 130 | 2000 | 27 | > 100 | > 100 | > 3.7 | –
2 | O=C(NC1CCN(Cc2ccccc2)CC1)c1cccc2c(=O)n(-c3cccc(Cl)c3)c(=O)[nH]c12 | 76 | 730 | 4 | 7 | 6.6 | 1.8 | –
3 | O=c1c2ccc(NCCO)cc2n2ccnc2n1-c1cccc(Cl)c1 | > 10000 | > 10000 | > 100 | – | – | – | CC50 ([4]; hbi10a): Not Active; EC50 (Hepatitis C virus [5]): Not Active
4 | C=C[C@H]1C[N@@]2CC[C@H]1C[C@H]2[C@H](O)c1ccnc2ccc(OC)cc12 [QUININE] | – | – | – | – | – | – | inhibition (INH) [7]: Not Active
5 | O=c1c2ccc(NC3CCN(Cc4ccccc4)CC3)c3c2n(c(=O)n1-c1cccc(Cl)c1)CCC3 | 8 | 140 | 1.7 | 10 | 4.9 | 5.9 | –
6 | CC[n+]1c(-c2ccccc2)c2cc(N)ccc2c2ccc(N)cc21 [HOMIDIUM BROMIDE] | 810 | – | – | 0.7 | – | 0.85 | IC50 (Hepatitis C virus [8]): 3.8 µM
7 | O=C1c2cccc3c(NC4CCN(Cc5ccccc5)CC4)ccc(c23)C(=O)N1c1cccc(Br)c1 | < 14 | 43 | 2.2 | 5.2 | 1.7 | 2.4 | –
8 | CC1CCC(Nc2ccc3c(=O)n(-c4cccc(Cl)c4)c(=O)n(C)c3c2)CC1 (stereo unspecified) | 5200 | 2300 | 22 | 36 | 16 | 1.6 | –
9 | COc1cccc2c1C(=O)c1c(O)c3c(c(O)c1C2=O)C[C@@](O)(C(=O)CO)C[C@@H]3O[C@H]1C[C@H](N)[C@H](O)[C@H](C)O1 [DOXORUBICIN] | – | – | – | < 0.3 | – | < 1 | IC50 (Hepatitis C virus [1]): 2600 nM; IC50 (Hepatitis C virus [8]): 12 µM
10 | O=c1c2ccc(N[C@H]3CC[C@@H](C(=O)O)CC3)c3c2n(c(=O)n1-c1cccc(Cl)c1)CCC3 | 1100 | 490 | 13 | > 100 | 17 | > 7.8 | –
11 | O=C(NCCO)c1cccc2c(=O)n(-c3cccc(Cl)c3)c(=O)[nH]c12 | > 10000 | > 10000 | < 100 | – | – | – | CC50 ([4]; hbi10a): Not Active; EC50 (Hepatitis C virus [5]): Not Active
12 | O=C1c2cccc3c(NCCO)ccc(c23)C(=O)N1c1cccc(Cl)c1 | 39 | 210 | 8.4 | 57 | 35 | 6.8 | –
13 | O=c1c2cccc3c2n(c(=O)n1-c1cccc(Cl)c1)CCN3CCCO | 5200 | 7700 | < 100 | – | > 100 | – | CC50 ([4]; hbi10a): Not Active
14 | C=C[C@H]1CN2CC[C@H]1C[C@H]2[C@H](O)c1ccnc2ccc(OC)cc12 | – | – | – | – | – | – | inhibition (Hepatitis C virus [9]): inactive; inhibition (Hepatitis C virus [10]): inactive; inhibition (Hepatitis C virus [11]): inactive
15 | CC(C)CNc1ccc2c(=O)n(-c3cccc(Cl)c3)c(=O)n(C)c2c1 | 3000 | 5000 | 24 | > 100 | > 100 | > 4 | –
16 | Cn1c(=O)n(-c2cccc(Cl)c2)c(=O)c2ccc(NC3CCN(Cc4ccccc4)CC3)cc21 | 75 | 1300 | 11 | 9.9 | > 25 | 0.9 | –
17 | O=C1c2cccc3c(NCCO)ccc(c23)C(=O)N1c1cccc(Br)c1 | 20 | 180 | – | 68 | 18 | – | inhibition (Hepatitis C virus [12]): inactive
18 | O=c1[nH]c2cc(NCCO)ccc2c(=O)n1-c1cccc(Cl)c1 | 5500 | > 50000 | > 100 | > 100 | > 100 | – | –
19 | O=C(O)c1cc(Cl)cc(-n2c(=O)c3ccc(NC4CCN(Cc5ccccc5)CC4)c4c3n(c2=O)CCC4)c1 | 160 | 720 | 4.1 | 42 | 20 | 10 | –
20 | O=c1c2ccc(NCCO)c3c2n(c(=O)n1-c1cccc(Cl)c1)CCC3 | 200 | 670 | 15 | 12 | 26 | 0.8 | –
21 | O=c1c2ccc(NC3CCN(Cc4ccccc4)CC3)cc2n2ccnc2n1-c1cccc(Cl)c1 | 840 | > 5000 | 3.7 | 3.2 | 2.6 | 0.9 | –
22 | Cn1c(=O)n(-c2cccc(Cl)c2)c(=O)c2ccc(NCCO)cc21 | 2000 | 8200 | 40 | > 100 | > 100 | – | –
23 | Cc1c(NCCO)ccc2c(=O)n(-c3cccc(Cl)c3)c(=O)n(C)c12 | 2400 | 5300 | 40 | > 100 | > 100 | > 2.5 | –
24 | Cc1c(NCCO)ccc2c(=O)n(-c3cccc(Cl)c3)c3nncn3c12 | 380 | 5300 | 14 | – | – | – | CC50 ([4]; hbi10a): Not Active; EC50 (Hepatitis C virus [5]): Not Active
25 | Cc1c(NC2CCN(Cc3ccccc3)CC2)ccc2c(=O)n(-c3cccc(Cl)c3)c3nncn3c12 | 6600 | 400 | 3 | 9 | < 100 | 3 | –
